Calls of active or inactive are those of the source. The calls are words filed in the database; no cut-off is given here.
Experiments:
Histone deacetylase 1 = Histone deacetylase 1 (Homo sapiens, UniProt Q13547); assay: Inhibition of human HDAC1 using ZMAL(Z-Lys(Ac)-AMC as substrate preincubated for 60 mins followed by substrate addition and measured after 90 mins by microplate reader analysis
[1] = target: T1, Protein deacetylase HDAC6 (Homo sapiens, UniProt Q9UBN7); assay: Inhibition of human HDAC6 using ZMAL(Z-Lys(Ac)-AMC as substrate preincubated for 15 mins followed by substrate addition and measured after 90 mins by microplate reader analysis
T1 sequence (Q9UBN7 whole entry): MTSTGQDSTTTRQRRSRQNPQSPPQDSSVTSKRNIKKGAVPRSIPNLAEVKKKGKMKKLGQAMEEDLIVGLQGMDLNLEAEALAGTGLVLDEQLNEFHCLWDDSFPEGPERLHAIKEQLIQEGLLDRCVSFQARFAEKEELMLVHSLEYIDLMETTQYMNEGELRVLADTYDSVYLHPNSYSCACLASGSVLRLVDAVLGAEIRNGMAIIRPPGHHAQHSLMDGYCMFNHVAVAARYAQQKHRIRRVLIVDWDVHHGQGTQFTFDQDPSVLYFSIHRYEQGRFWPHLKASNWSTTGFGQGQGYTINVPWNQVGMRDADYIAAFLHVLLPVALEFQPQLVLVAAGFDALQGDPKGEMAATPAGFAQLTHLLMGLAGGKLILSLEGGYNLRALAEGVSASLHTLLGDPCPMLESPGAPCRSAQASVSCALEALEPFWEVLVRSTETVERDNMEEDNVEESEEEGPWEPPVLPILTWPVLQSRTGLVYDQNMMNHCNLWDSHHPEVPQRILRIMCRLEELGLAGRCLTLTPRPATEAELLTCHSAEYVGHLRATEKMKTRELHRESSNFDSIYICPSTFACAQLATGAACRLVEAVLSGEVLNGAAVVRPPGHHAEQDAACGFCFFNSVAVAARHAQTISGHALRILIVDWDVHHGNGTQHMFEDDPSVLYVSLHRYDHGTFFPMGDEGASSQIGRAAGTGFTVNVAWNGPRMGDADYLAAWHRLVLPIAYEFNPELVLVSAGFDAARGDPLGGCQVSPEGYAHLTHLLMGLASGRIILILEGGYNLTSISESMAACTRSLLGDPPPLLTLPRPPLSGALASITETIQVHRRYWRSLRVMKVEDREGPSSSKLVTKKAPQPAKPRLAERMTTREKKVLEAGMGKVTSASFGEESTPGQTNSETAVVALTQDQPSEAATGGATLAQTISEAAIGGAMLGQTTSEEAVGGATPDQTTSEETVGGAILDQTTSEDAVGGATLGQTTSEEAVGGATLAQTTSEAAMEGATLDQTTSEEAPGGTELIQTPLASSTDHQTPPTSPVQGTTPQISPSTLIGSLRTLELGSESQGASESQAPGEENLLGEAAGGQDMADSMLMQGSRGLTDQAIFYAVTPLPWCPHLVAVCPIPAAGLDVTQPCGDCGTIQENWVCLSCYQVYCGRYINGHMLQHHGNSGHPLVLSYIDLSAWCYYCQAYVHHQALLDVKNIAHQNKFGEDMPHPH

cells = conditions: Homo sapiens, Cal27CisR, 72 h
CAL-27 [2] = assay: cells; conditions: Homo sapiens, CAL-27, 72 h
Plasmodium falciparum [3] = assay: microbe, parasite or virus in culture; conditions: 3D7, 72 h
Plasmodium falciparum [4] = assay: microbe, parasite or virus in culture; conditions: Dd2, 72 h
Histone deacetylase 3 = Histone deacetylase 3 (Homo sapiens, UniProt O15379); assay: Inhibition of human HDAC3 using ZMAL(Z-Lys(Ac)-AMC as substrate preincubated for 60 mins followed by substrate addition and measured after 90 mins by microplate reader analysis
Sequence of Histone deacetylase 3 (O15379 whole entry): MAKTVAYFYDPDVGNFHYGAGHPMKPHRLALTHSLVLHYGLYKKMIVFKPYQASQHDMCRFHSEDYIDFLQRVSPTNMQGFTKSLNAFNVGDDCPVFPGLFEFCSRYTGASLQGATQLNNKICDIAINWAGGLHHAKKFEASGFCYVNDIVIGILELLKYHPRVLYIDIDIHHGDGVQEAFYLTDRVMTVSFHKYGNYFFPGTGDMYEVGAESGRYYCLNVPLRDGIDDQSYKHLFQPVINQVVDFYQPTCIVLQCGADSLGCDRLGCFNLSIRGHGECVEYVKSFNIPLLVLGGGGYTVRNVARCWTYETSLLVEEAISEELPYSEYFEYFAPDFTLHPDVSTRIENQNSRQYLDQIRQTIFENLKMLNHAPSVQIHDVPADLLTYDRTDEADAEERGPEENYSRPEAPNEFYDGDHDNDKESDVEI

A2780 = assay: Cytotoxicity against human A2780 cells assessed as cell viability incubated for 72 hrs by MTS assay; format: functional, cell-based; conditions: A2780, 72 h
A2780cisR = assay: Cytotoxicity against human A2780 cisR cells assessed as cell viability up to 100 uM incubated for 72 hrs by MTS assay; format: functional, cell-based
CAL-27 [5] = assay: Cytotoxicity against human CAL-27 cells assessed as cell viability incubated for 72 hrs by MTS assay; format: functional, cell-based; conditions: CAL-27, 72 h
[6] = Cytotoxicity against human Cal27CisR cells assessed as cell viability incubated for 72 hrs by MTS assay; format: functional, cell-based
[7] = Metabolic stability in human liver microsome assessed as half life; format: ADME, microsomes
[8] = Metabolic stability in human liver microsome assessed as intrinsic clearance; format: ADME; conditions: microsomes

Sequence of Histone deacetylase 1 (Q13547 whole entry): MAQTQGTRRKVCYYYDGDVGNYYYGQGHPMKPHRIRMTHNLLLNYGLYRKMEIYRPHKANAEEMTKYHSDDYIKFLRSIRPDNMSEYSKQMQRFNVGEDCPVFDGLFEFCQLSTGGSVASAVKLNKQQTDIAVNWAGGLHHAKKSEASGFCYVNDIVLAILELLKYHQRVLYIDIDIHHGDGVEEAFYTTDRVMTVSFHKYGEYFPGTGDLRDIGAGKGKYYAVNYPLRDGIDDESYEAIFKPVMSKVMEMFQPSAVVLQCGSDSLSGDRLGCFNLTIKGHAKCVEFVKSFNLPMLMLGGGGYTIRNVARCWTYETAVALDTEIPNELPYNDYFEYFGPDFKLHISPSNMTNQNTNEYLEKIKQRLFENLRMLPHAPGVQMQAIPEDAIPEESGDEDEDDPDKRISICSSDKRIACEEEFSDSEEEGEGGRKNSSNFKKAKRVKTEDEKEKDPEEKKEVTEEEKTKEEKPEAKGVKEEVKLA

| SMILES | IC50 (Histone deacetylase 1) [µM] | IC50 [1] [µM] | IC50 (cells) [µM] | IC50 (CAL-27 [2]) [µM] | IC50 (Plasmodium falciparum [3]) [µM] | IC50 (Plasmodium falciparum [4]) [µM] | IC50 (Histone deacetylase 3) [µM] | half-life ([7]; liver microsomes) [min] | CLH [8] [µL/min/mg] | t1/2 ([7]; microsomes) [min] | IC50 (A2780) [µM] | Activity (A2780cisR) | IC50 (CAL-27 [5]) [µM] | IC50 [6] [µM] |
| --- | --- | --- | --- | --- | --- | --- | --- | --- | --- | --- | --- | --- | --- | --- |
| CN(C)c1ccc(C(=O)N(CCCCCCNC(=O)c2ccccc2O)CC(=O)NCc2ccccc2)cc1 | > 10 | > 10 | > 100 | – | – | – | – | – | – | – | – | – | – | – |
| CSc1ccccc1C(=O)NCCCCCCCN(CC(=O)NCc1ccccc1)C(=O)c1ccc(N(C)C)cc1 | > 10 | > 10 | > 100 | 70.9 | 34.9 | 23 | > 10 | – | – | – | – | – | – | – |
| CN(C)c1ccc(C(=O)N(CC(=O)NCc2ccccc2)Cc2ccc(C(=O)NCCSSCCNC(=O)c3ccc(CN(CC(=O)NCc4ccccc4)C(=O)c4ccc(N(C)C)cc4)cc3)cc2)cc1 | 4.54 | > 10 | > 100 | > 100 | > 100 | > 100 | – | – | – | – | – | – | – | – |
| CSc1ccccc1C(=O)NCCCCCN(CC(=O)NCc1ccccc1)C(=O)c1ccc(N(C)C)cc1 | > 10 | > 10 | 55 | 63.7 | – | 37.6 | > 10 | – | – | – | – | – | – | – |
| CN(C)c1ccc(C(=O)N(CC(=O)NCc2ccccc2)Cc2ccc(C(=O)O)cc2)cc1 | 13.8 | > 10 | > 100 | 74.3 | > 100 | > 100 | – | – | – | – | – | – | – | – |
| Nc1cc(F)ccc1NC(=O)/C=C/c1cnn(C/C=C/c2ccccc2)c1 | – | – | – | – | – | – | – | – | – | – | 12.9 | inactive | 43.1 | 49.4 |
| CN(C)c1ccc(C(=O)N(CC(=O)NCc2ccccc2)Cc2ccc(C(=O)Nc3ccccc3N)cc2)cc1 | – | – | – | – | – | – | – | 17.5 | 79.4 | – | – | – | – | – |
| CSc1ccccc1C(=O)Nc1ccc(CN(CC(=O)NCc2ccccc2)C(=O)c2ccc(N(C)C)cc2)cc1 | > 10 | > 10 | > 100 | > 100 | > 100 | – | > 10 | – | – | – | – | – | – | – |
| CC(=O)SCC(=O)NCCCCCCN(CC(=O)NCc1ccccc1)C(=O)c1ccc(N(C)C)cc1 | – | – | 28.8 | 33.4 | > 100 | 85.1 | – | – | – | – | – | – | – | – |

Further lines, with some results ahead:

| IC50 (Histone deacetylase 1) [µM] | IC50 [1] [µM] | IC50 (cells) [µM] | IC50 (CAL-27 [2]) [µM] | IC50 (Plasmodium falciparum [3]) [µM] | IC50 (Plasmodium falciparum [4]) [µM] | IC50 (Histone deacetylase 3) [µM] | half-life ([7]; liver microsomes) [min] | CLH [8] [µL/min/mg] | t1/2 ([7]; microsomes) [min] | SMILES | IC50 (A2780) [µM] | Activity (A2780cisR) | IC50 (CAL-27 [5]) [µM] | IC50 [6] [µM] |
| --- | --- | --- | --- | --- | --- | --- | --- | --- | --- | --- | --- | --- | --- | --- |
| > 10 | > 10 | > 100 | > 100 | > 100 | > 100 | – | – | – | – | CN(C)c1ccc(C(=O)N(CCCCCC(=O)O)CC(=O)NCc2ccccc2)cc1 | – | – | – | – |
| > 10 | > 10 | 65.6 | 68.9 | 8.97 | 6.66 | > 10 | – | – | – | CSc1ccccc1C(=O)NCCCCCCN(CC(=O)NCc1ccccc1)C(=O)c1ccc(N(C)C)cc1 | – | – | – | – |
| > 10 | > 10 | > 100 | > 100 | 18.1 | 23.7 | – | – | – | – | CN(C)c1ccc(C(=O)N(CC(=O)NCc2ccccc2)Cc2ccc(-c3nnc(C(F)F)o3)cc2)cc1 | – | – | – | – |
| – | – | > 100 | > 100 | > 100 | > 100 | – | – | – | – | CC(=O)SCC(=O)Nc1ccc(CN(CC(=O)NCc2ccccc2)C(=O)c2ccc(N(C)C)cc2)cc1 | – | – | – | – |
| > 10 | > 10 | > 100 | > 100 | > 100 | > 100 | – | – | – | – | CNC(=O)CCCCCN(CC(=O)NCc1ccccc1)C(=O)c1ccc(N(C)C)cc1 | – | – | – | – |
| – | – | – | – | – | – | – | – | 92.2 | 15.04 | CCCNNC(=O)c1ccc(CN(CC(=O)NCc2ccccc2)C(=O)c2ccc(N(C)C)cc2)cc1 | – | – | – | – |
| > 10 | > 10 | 61.3 | 79.4 | 56.9 | 28.7 | > 10 | – | – | – | CSc1ccccc1NC(=O)CCCCCN(CC(=O)NCc1ccccc1)C(=O)c1ccc(N(C)C)cc1 | – | – | – | – |
| > 10 | > 10 | > 100 | > 100 | 34.2 | 36.8 | – | – | – | – | CN(C)c1ccc(C(=O)N(CC(=O)NCc2ccccc2)Cc2ccc(-c3nnc(C(F)(F)F)o3)cc2)cc1 | – | – | – | – |
| 7.1 | > 10 | > 100 | 98.7 | 11.7 | > 100 | – | – | – | – | CN(C)c1ccc(C(=O)N(CCCCCC(=O)NCCSSCCNC(=O)CCCCCN(CC(=O)NCc2ccccc2)C(=O)c2ccc(N(C)C)cc2)CC(=O)NCc2ccccc2)cc1 | – | – | – | – |

Source: ChEMBL document CHEMBL6153132 (J Med Chem, 2025)
